# Biological target: ALK2 (Homo sapiens (Human), UniProt Q04771)
# Test: ALK2 inhibition, LanthaScreen Eu Kinase Binding Assay (ThermoFisher Scientific / Life Technologies)
# Conditions: read-out: Measured Ki (IC50) Value for Compounds: IC50
# Protocol: Biochemical assays to measure the inhibitory effects of the compounds were performed by ThermoFisher Scientific (Life Technologies). ALK2 inhibition was tested using LanthaScreen™ Eu Kinase Binding Assay screening protocol.
# Sequence of ALK2 (Q04771 21-509): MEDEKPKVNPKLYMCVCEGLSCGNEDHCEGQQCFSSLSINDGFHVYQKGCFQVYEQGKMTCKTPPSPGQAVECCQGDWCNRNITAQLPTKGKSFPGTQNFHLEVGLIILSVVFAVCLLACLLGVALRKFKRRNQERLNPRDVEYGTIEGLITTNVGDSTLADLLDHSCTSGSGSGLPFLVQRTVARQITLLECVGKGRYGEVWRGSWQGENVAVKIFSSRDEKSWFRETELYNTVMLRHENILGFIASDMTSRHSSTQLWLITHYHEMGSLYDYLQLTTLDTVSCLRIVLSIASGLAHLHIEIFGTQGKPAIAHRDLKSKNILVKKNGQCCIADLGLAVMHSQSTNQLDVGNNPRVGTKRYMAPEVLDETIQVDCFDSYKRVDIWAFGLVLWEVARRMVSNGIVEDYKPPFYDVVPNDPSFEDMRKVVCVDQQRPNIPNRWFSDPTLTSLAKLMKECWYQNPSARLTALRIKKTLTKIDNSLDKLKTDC
row,SMILES,IC50 [nM]
1,"c1ccc(C2CCCN2c2nc(Nc3cn(-c4cc[nH]n4)cn3)c3cccn3n2)nc1 (stereo not drawn) [Compound 74a, N-(1-(1H-pyrazol-3-yl)-1H-imidazol-4-yl)-2-(2-(pyridin-2-yl)pyrrolidin-1-yl)pyrrolo[2,1-f][1,2,4]triazin-4-amine]",> 1000
2,"OC[C@@H]1CCCN1c1nc(Nc2cn(-c3cccc4ncccc34)cn2)c2cccn2n1 [Compound 76c, (S)-(1-(4-((1-(quinolin-5-yl)-1H-imidazol-4-yl)amino)pyrrolo[2,1-f][1,2,4]triazin-2-yl)pyrrolidin-2-yl)methanol]",< 100
3,"OCc1cc2nc(N3CCC[C@H]3CO)nc(Nc3cn(-c4ccccc4)cn3)c2s1 [Compound 78f, (S)-(1-(6-(hydroxymethyl)-4-((1-phenyl-1H-imidazol-4-yl)amino)thieno[3,2-d]pyrimidin-2-yl)pyrrolidin-2-yl)methanol]",< 100
4,"CC(C)(C)OC(=O)N1CC=C(c2ccc3c(Nc4cn(-c5ccccc5)cn4)nc(N4CCC[C@H]4CO)nn23)CC1 [Compound 80a, (S)-tert-butyl 4-(2-(2-(hydroxymethyl)pyrrolidin-1-yl)-4-(1-phenyl-1H-imidazol-4-ylamino)pyrrolo[1,2-f][1,2,4]triazin-7-yl)-5,6-dihydropyridine-1(2H)-carboxylate]",100 to 1000
5,"Cn1cnc(-n2cnc(Nc3nc(N4CCCC4c4ccccn4)nn4cccc34)c2)c1 (stereo not drawn) [Compound 81c, N-(1′-methyl-1′H-[1,4′-biimidazol]-4-yl)-2-(2-(pyridin-2-yl)pyrrolidin-1-yl)pyrrolo[2,1-f][1,2,4]triazin-4-amine]",> 1000
6,"Cn1cnc(-n2cnc(Nc3nc(N4CCC[C@H]4CO)nn4cccc34)c2)c1 [Compound 82a, (S)-(1-(4-((1′-methyl-1′H-[1,4′-biimidazol]-4-yl)amino)pyrrolo[2,1-f][1,2,4]triazin-2-yl)pyrrolidin-2-yl)methanol]",< 100
7,"OC[C@@H]1CCCN1c1cc(F)cc(-n2cnc(Nc3nc(N4CCC[C@H]4CO)nn4cccc34)c2)c1 [Compound 83c, ((S)-1-(4-((1-(3-fluoro-5-((S)-2-(hydroxymethyl)pyrrolidin-1-yl)phenyl)-1H-imidazol-4-yl)amino)pyrrolo[2,1-f][1,2,4]triazin-2-yl)pyrrolidin-2-yl)methanol]",< 100
8,"OC[C@@H]1CCCN1c1nc(Nc2cn(-c3ccccc3)cn2)c2scc(Br)c2n1 [Compound 87c, (S)-(1-(7-bromo-4-((1-phenyl-1H-imidazol-4-yl)amino)thieno[3,2-d]pyrimidin-2-yl)pyrrolidin-2-yl)methanol]",100 to 1000
9,"COc1ccc(-c2csc3c(Nc4cn(-c5ccccc5)cn4)nc(N4CCC[C@H]4CO)nc23)cc1 [Compound 89a, (S)-(1-(7-(4-methoxyphenyl)-4-(1-phenyl-1H-imidazol-4-ylamino)thieno[3,2-d]pyrimidin-2-yl)pyrrolidin-2-yl)methanol]",100 to 1000
10,"CC(=O)c1ccc(-n2cnc(Nc3nc(N4CCC[C@H]4CO)nn4cccc34)c2)cc1 [Compound 95c, (S)-1-(4-(4-(2-(2-(hydroxymethyl)pyrrolidin-1-yl)pyrrolo[1,2-f][1,2,4]triazin-4-ylamino)-1H-imidazol-1-yl)phenyl)ethanone]",< 100
11,"COc1cc(-n2cnc(Nc3nc(N4CCC[C@H]4CO)nc4sc(CN5CCOCC5)cc34)c2)cc(OC)c1OC [Compound 97d, (S)-(1-(6-(morpholinomethyl)-4-((1-(3,4,5-trimethoxyphenyl)-1H-imidazol-4-yl)amino)thieno[2,3-d]pyrimidin-2-yl)pyrrolidin-2-yl)methanol]",< 100
12,"COc1cc(-n2cnc(Nc3nc(N4CCC[C@H]4CO)nc4sc(CN5CCC(O)CC5)cc34)c2)cc(OC)c1OC [Compound 102b, (S)-1-((2-(2-(hydroxymethyl)pyrrolidin-1-yl)-4-((1-(3,4,5-trimethoxyphenyl)-1H-imidazol-4-yl)amino)thieno[2,3-d]pyrimidin-6-yl)methyl)piperidin-4-ol]",< 100

# The remaining lines, values ahead:
row,IC50 [nM],SMILES
1,< 100,"COc1cc(OC)cc(-n2cnc(Nc3nc(N4CCC[C@H]4CO)nn4cccc34)c2)c1 [Compound 72c, (S)-(1-(4-((1-(3,5-dimethoxyphenyl)-1H-imidazol-4-yl)amino)pyrrolo[2,1-f][1,2,4]triazin-2-yl)pyrrolidin-2-yl)methanol]"
2,< 100,"COc1ccc(-n2cnc(Nc3nc(N4CCC[C@H]4CO)nn4cccc34)c2)cc1OC [Compound 73c, (S)-(1-(4-((1-(3,4-dimethoxyphenyl)-1H-imidazol-4-yl)amino)pyrrolo[2,1-f][1,2,4]triazin-2-yl)pyrrolidin-2-yl)methanol]"
3,< 100,"COc1cc(-n2cnc(Nc3nc(N4CCC[C@H]4CO)nc4ccsc34)c2)cc(OC)c1OC [Compound 75b, (S)-(1-(4-((1-(3,4,5-trimethoxyphenyl)-1H-imidazol-4-yl)amino)thieno[3,2-d]pyrimidin-2-yl)pyrrolidin-2-yl)methanol]"
4,< 100,"CCCC=Cc1ccc2c(Nc3cn(-c4cc(OC)c(OC)c(OC)c4)cn3)nc(N3CCC[C@H]3CO)nn12 [Compound 79d, (S)-(1-(7-(pent-1-en-1-yl)-4-((1-(3,4,5-trimethoxyphenyl)-1H-imidazol-4-yl)amino)pyrrolo[2,1-f][1,2,4]triazin-2-yl)pyrrolidin-2-yl)methanol]"
5,< 100,"COc1cc(-n2cnc(Nc3nc(N4CCC[C@H]4CO)nc4sccc34)c2)cc(OC)c1OC [Compound 84b, (S)-(1-(4-((1-(3,4,5-trimethoxyphenyl)-1H-imidazol-4-yl)amino)thieno[2,3-d]pyrimidin-2-yl)pyrrolidin-2-yl)methanol]"
6,< 100,"COc1cc(-n2cnc(Nc3nc(N4CCC[C@H]4CO)nn4c(Br)ccc34)c2)cc(OC)c1OC [Compound 85b, (S)-(1-(7-bromo-4-(1-(3,4,5-trimethoxyphenyl)-1H-imidazol-4-ylamino)pyrrolo[1,2-f][1,2,4]triazin-2-yl)pyrrolidin-2-yl)methanol]"
7,< 100,"COc1cc(-n2cnc(Nc3nc(N4CCC[C@H]4CO)nc4ccccc34)c2)cc(OC)c1OC [Compound 86b, (S)-(1-(4-((1-(3,4,5-trimethoxyphenyl)-1H-imidazol-4-yl)amino)quinazolin-2-yl)pyrrolidin-2-yl)methanol]"
8,< 100,"COc1ccc(-c2nc(Nc3cn(-c4cc(OC)c(OC)c(OC)c4)cn3)c3cccn3n2)cc1 [Compound 88a, 2-(4-methoxyphenyl)-N-(1-(3,4,5-trimethoxyphenyl)-1H-imidazol-4-yl)pyrrolo[2,1-f][1,2,4]triazin-4-amine]"
9,< 100,"COc1ccc(-c2ccc3c(Nc4cn(-c5cc(OC)c(OC)c(OC)c5)cn4)nc(N4CCC[C@H]4CO)nn23)cc1 [Compound 90a, (S)-(1-(7-(4-methoxyphenyl)-4-(1-(3,4,5-trimethoxyphenyl)-1H-imidazol-4-ylamino)pyrrolo[1,2-f][1,2,4]triazin-2-yl)pyrrolidin-2-yl)methanol]"
10,< 100,"COc1cc(-n2cnc(Nc3nc(N4CCC[C@H]4C(N)=O)nn4cccc34)c2)cc(OC)c1OC [Compound 91a, (S)-1-(4-(1-(3,4,5-trimethoxyphenyl)-1H-imidazol-4-ylamino)pyrrolo[1,2-f][1,2,4]triazin-2-yl)pyrrolidine-2-carboxamide]"
11,100 to 1000,"COc1cc(-n2cnc(Nc3nc(N4CCC[C@H]4CO)nc4sc(C(=O)OCC(C)C)cc34)c2)cc(OC)c1OC [Compound 92d, (S)-isobutyl 2-(2-(hydroxymethyl)pyrrolidin-1-yl)-4-((1-(3,4,5-trimethoxyphenyl)-1H-imidazol-4-yl)amino)thieno[2,3-d]pyrimidine-6-carboxylate]"
12,< 100,"NC(=O)c1ccc(-n2cnc(Nc3nc(N4CCC[C@H]4CO)nn4cccc34)c2)cc1 [Compound 93c, (S)-4-(4-(2-(2-(hydroxymethyl)pyrrolidin-1-yl)pyrrolo[1,2-f][1,2,4]triazin-4-ylamino)-1H-imidazol-1-yl)benzamide]"
13,< 100,"NC(=O)c1cccc(-n2cnc(Nc3nc(N4CCC[C@H]4CO)nn4cccc34)c2)c1 [Compound 94c, (S)-3-(4-(2-(2-(hydroxymethyl)pyrrolidin-1-yl)pyrrolo[1,2-f][1,2,4]triazin-4-ylamino)-1H-imidazol-1-yl)benzamide]"
14,< 100,"COc1cc(-n2cnc(Nc3nc(N4CCC[C@H]4CO)c4cccn4n3)c2)cc(OC)c1OC [Compound 96b, (S)-(1-(2-((1-(3,4,5-trimethoxyphenyl)-1H-imidazol-4-yl)amino)pyrrolo[2,1-f][1,2,4]triazin-4-yl)pyrrolidin-2-yl)methanol]"
15,< 100,"COc1cc(-n2cnc(Nc3nc(N4CCC[C@H]4CO)nn4c(C5=CCN(C(=O)OC(C)(C)C)CC5)ccc34)c2)cc(OC)c1OC [Compound 98a, (S)-tert-butyl 4-(2-(2-(hydroxymethyl)pyrrolidin-1-yl)-4-(1-(3,4,5-trimethoxyphenyl)-1H-imidazol-4-ylamino)pyrrolo[1,2-f][1,2,4]triazin-7-yl)-5,6-dihydropyridine-1(2H)-carboxylate]"
16,< 100,"COc1cc(-n2cnc(Nc3nc(N4CCC[C@H]4CO)nn4c(C(C)O)ccc34)c2)cc(OC)c1OC (stereo partly drawn) [Compound 99b, 1-(2-((S)-2-(hydroxymethyl)pyrrolidin-1-yl)-4-((1-(3,4,5-trimethoxyphenyl)-1H-imidazol-4-yl)amino)pyrrolo[2,1-f][1,2,4]triazin-7-yl)ethanol]"
17,< 100,"COc1cc(-n2cnc(Nc3nc(N4CCC[C@H]4CO)nn4c(CO)ccc34)c2)cc(OC)c1OC [Compound 101c, (S)-(1-(7-(hydroxymethyl)-4-((1-(3,4,5-trimethoxyphenyl)-1H-imidazol-4-yl)amino)pyrrolo[2,1-f][1,2,4]triazin-2-yl)pyrrolidin-2-yl)methanol]"
18,< 100,"COc1cc(-n2cnc(Nc3nc(N4CCC[C@H]4CO)nc4ccoc34)c2)cc(OC)c1OC [Compound 103b, (S)-(1-(4-((1-(3,4,5-trimethoxyphenyl)-1H-imidazol-4-yl)amino)furo[3,2-d]pyrimidin-2-yl)pyrrolidin-2-yl)methanol]"
